Measurements from patent publication US9809623B2, “α4β7 peptide monomer and dimer antagonists” (Protagonist Therapeutics, Inc., priority 2014, dated 2017).
Numbered stars: 1 amine (or outer) side, 2 acyl side, 3 side chain; on linkers, the order of the positions; unused ones are H or OH. Bridge positions count the residues as written; N and C are the ends. Square brackets hold non-standard residues; d marks the D form. Peptide text beside a SMILES is read from it. I, II: the chains in the order shown. X1 = O=C(CCOCCOCCOCCOCCOCCOCCOCCOCCOCCOCCOCCOCCOCCOCCOCCOCCOCCOCCOCCOCCOCCOCCOCCOCCOCCOCCC(=O)[*:2])[*:1]; X4 = O=C(CCOCCOCCOCCOCCOCCOCCOCCOCCOCCOCCOCCOCCOCCOCCC(=O)[*:2])[*:1]; d1Nal = N[C@H](Cc1cccc2ccccc12)C(=O)O; d2Nal = N[C@H](Cc1ccc2ccccc2c1)C(=O)O; Diglycolyl = O=C(COCC(=O)[*:2])[*:1]; NMeR = CN[C@@H](CCCNC(=N)N)C(=O)O; NMeE = CN[C@@H](CCC(=O)O)C(=O)O; Pen = CC(C)(S)[C@H](N)C(=O)O

biological target: α4β7 (Homo sapiens, UniProt P13612+P26010); experiment: α4β7-MAdCAM Cell Adhesion Assay (RPMI 8866 human cells); type: cell-based; parameters: host or cells: RPMI 8866 human B lymphoblastoid cells; conditions: Table 3-B, Potency (α4β7); range classes; read-out: α4β7 cell (Hu) IC50
Procedure: RPMI 8866 human cells (Sigma #95041316) were cultured in RPMI 1640 HEPES medium (Invitrogen #22400-089) supplemented with 10% serum (Fetal Bovine Serum, Invitrogen #16140-071), 1 mM sodium pyruvate (Invitrogen #11360-070), 2 mM L-glutamine (Invitrogen #25030-081) and Penicillin-Streptomycin (Invitrogen #15140-122) at 100 units of penicillin and 100 μg of streptomycin per ml. The cells were washed two times in DMEM medium (ATCC #30-2002) supplemented with 0.1% BSA, 10 mM HEPES pH 7 and 1 mM MnCl2. The cells were re-suspended in supplemented DMEM medium at a density of 4×10^6 cells/ml.
A Nunc MaxiSorp plate was coated with rh MAdCAM-1/Fc Chimera (R&D #6065-MC) at 200 ng per well in 50 ul per well in 1×PBS and incubated at 4° C. overnight. The solution was then removed by shaking, blocked with 250 ul per well PBS containing 1% BSA, and incubated at 37° C. for 1 hr. The solution was removed by shaking. Peptides were diluted by serial dilution in a final volume of 50 ul per well (2× concentration). To each well, 50 ul of cells (200,000 cells) were added and the plate was incubated at 37° C., 5% CO2 for 30-45 min to allow cell adhesion. The wells were washed manually three times (100 ul per wash) with supplemented DMEM. After the final wash, 100 ul/well of supplemented DMEM and 10 ul/well of MTT reagent (ATTC cat#30-1010K) were added. The plate was incubated at 37° C., 5% CO2 for 2-3 hrs until a purple precipitate was visible. 100 ul of Detergent Reagent (ATTC cat#30-1010K) was added to each well. The plate was covered from the light, wrapped in Parafilm to prevent evaporation, and left overnight at room temperature in the dark. The plate was shaken for 5 min and the absorbance at 570 nm was measured. To calculate the dose response, the absorbance value of control wells not containing cells was subtracted from each test well.

Sequence of α4β7 (P13612 34-1032): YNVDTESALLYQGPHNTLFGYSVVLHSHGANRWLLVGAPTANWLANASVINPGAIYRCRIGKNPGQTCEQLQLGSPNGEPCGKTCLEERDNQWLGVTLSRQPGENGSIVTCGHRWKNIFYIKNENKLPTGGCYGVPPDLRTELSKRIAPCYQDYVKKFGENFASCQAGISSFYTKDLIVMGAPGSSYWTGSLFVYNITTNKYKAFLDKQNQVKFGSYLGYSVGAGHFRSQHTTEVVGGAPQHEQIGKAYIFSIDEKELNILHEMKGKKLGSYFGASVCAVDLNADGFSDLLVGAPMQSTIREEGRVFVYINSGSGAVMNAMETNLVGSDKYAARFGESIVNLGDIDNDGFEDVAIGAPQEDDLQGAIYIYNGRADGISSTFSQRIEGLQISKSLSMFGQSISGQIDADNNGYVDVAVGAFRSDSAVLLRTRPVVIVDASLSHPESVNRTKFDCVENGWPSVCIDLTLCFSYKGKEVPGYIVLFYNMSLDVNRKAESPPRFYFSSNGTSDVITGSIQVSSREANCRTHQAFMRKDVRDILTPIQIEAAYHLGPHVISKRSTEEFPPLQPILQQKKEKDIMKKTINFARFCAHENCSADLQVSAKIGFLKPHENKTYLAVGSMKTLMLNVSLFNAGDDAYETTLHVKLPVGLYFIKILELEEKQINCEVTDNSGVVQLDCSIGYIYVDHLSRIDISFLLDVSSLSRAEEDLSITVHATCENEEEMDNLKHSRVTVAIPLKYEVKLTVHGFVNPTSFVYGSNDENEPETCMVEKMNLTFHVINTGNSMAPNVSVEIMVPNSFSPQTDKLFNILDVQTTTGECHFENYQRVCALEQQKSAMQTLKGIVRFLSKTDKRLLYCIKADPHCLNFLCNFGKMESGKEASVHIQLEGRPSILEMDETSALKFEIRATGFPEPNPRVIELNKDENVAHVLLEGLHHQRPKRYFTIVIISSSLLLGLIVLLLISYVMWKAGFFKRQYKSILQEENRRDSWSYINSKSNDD
Sequence of α4β7 (P26010 20-798): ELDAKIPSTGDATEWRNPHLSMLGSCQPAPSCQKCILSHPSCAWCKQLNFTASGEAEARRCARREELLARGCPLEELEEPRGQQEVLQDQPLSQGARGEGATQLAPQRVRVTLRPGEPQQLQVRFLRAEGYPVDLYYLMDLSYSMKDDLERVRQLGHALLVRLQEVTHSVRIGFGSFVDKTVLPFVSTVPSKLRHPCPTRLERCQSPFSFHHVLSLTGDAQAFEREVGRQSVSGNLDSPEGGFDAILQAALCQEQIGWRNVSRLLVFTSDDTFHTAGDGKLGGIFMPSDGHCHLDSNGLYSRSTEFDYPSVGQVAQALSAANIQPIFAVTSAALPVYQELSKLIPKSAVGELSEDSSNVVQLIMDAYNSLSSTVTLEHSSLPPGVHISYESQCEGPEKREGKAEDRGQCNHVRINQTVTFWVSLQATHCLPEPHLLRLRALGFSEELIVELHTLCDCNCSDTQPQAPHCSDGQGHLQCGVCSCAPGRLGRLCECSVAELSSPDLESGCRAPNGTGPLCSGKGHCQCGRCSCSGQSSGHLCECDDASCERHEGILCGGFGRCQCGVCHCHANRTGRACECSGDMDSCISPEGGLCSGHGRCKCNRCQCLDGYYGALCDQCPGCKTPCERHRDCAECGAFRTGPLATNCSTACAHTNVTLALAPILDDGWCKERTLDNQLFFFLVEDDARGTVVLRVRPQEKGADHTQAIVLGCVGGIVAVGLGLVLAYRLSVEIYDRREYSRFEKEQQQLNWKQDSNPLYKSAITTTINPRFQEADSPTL

Compared with `CC(=O)N[C@@H]1C(=O)N(C)[C@@H](CCCNC(=N)N)C(=O)N[C@@H](CO)C(=O)N[C@@H](CC(=O)O)C(=O)N[C@@H]([C@@H](C)O)C(=O)N[C@@H](CC(C)C)C(=O)N[C@H](C(=O)N[C@@H](Cc2c[nH]cn2)C(=O)N[C@@H](CCC(=O)O)C(=O)N[C@H](CCCCNC(=O)COCC(=O)NCCCC[C@@H](NC(=O)[C@H](CCC(=O)O)NC(=O)[C@H](Cc2c[nH]cn2)NC(=O)[C@H]2NC(=O)[C@H](CC(C)C)NC(=O)[C@H]([C@@H](C)O)NC(=O)[C@H](CC(=O)O)NC(=O)[C@H](CO)NC(=O)[C@H](CCCNC(=N)N)N(C)C(=O)[C@@H](NC(C)=O)C(C)(C)SSC2(C)C)C(N)=O)C(N)=O)C(C)(C)SSC1(C)C` [compound 25] (I: Ac-[Pen][NMeR]SDTL[Pen]HE[dK]-NH2 / II: Ac-[Pen][NMeR]SDTL[Pen]HE[dK]-NH2; disulfide I:1-I:7, II:1-II:7; linker I:10-II:10 via Diglycolyl), `CC(=O)N[C@@H]1C(=O)N(C)[C@@H](CCCNC(=N)N)C(=O)N[C@@H](CO)C(=O)N[C@@H](CC(=O)O)C(=O)N[C@@H]([C@@H](C)O)C(=O)N[C@@H](CC(C)C)C(=O)N[C@H](C(=O)N[C@H](Cc2ccccc2)C(=O)N[C@@H](CCC(=O)O)C(=O)N[C@H](CCCCNC(=O)COCC(=O)NCCCC[C@@H](NC(=O)[C@H](CCC(=O)O)NC(=O)[C@@H](Cc2ccccc2)NC(=O)[C@H]2NC(=O)[C@H](CC(C)C)NC(=O)[C@H]([C@@H](C)O)NC(=O)[C@H](CC(=O)O)NC(=O)[C@H](CO)NC(=O)[C@H](CCCNC(=N)N)N(C)C(=O)[C@@H](NC(C)=O)C(C)(C)SSC2(C)C)C(N)=O)C(N)=O)C(C)(C)SSC1(C)C` [compound 30] (I: Ac-[Pen][NMeR]SDTL[Pen][dF]E[dK]-NH2 / II: Ac-[Pen][NMeR]SDTL[Pen][dF]E[dK]-NH2; disulfide I:1-I:7, II:1-II:7; linker I:10-II:10 via Diglycolyl) is higher in IC50: 10 to 25 nM for the first, 100 to 500 nM for the second.

`CC(=O)N[C@@H]1C(=O)N(C)[C@@H](CCCNC(=N)N)C(=O)N[C@@H](CO)C(=O)N[C@@H](CC(=O)O)C(=O)N[C@@H]([C@@H](C)O)C(=O)N[C@@H](CC(C)C)C(=O)N[C@H](C(=O)N[C@@H](Cc2c[nH]cn2)C(=O)N[C@@H](Cc2ccc(O)cc2)C(=O)N[C@H](CCCCNC(=O)COCC(=O)NCCCC[C@@H](NC(=O)[C@H](Cc2ccc(O)cc2)NC(=O)[C@H](Cc2c[nH]cn2)NC(=O)[C@H]2NC(=O)[C@H](CC(C)C)NC(=O)[C@H]([C@@H](C)O)NC(=O)[C@H](CC(=O)O)NC(=O)[C@H](CO)NC(=O)[C@H](CCCNC(=N)N)N(C)C(=O)[C@@H](NC(C)=O)C(C)(C)SSC2(C)C)C(N)=O)C(N)=O)C(C)(C)SSC1(C)C` [compound 26] (I: Ac-[Pen][NMeR]SDTL[Pen]HY[dK]-NH2 / II: Ac-[Pen][NMeR]SDTL[Pen]HY[dK]-NH2; disulfide I:1-I:7, II:1-II:7; linker I:10-II:10 via Diglycolyl) and `CC(=O)N[C@@H]1C(=O)N(C)[C@@H](CCCNC(=N)N)C(=O)N[C@@H](CO)C(=O)N[C@@H](CC(=O)O)C(=O)N[C@@H]([C@@H](C)O)C(=O)N[C@@H](CC(C)C)C(=O)N[C@H](C(=O)N[C@H](Cc2ccc3ccccc3c2)C(=O)N[C@@H](CCC(=O)O)C(=O)N[C@H](CCCCNC(=O)COCC(=O)NCCCC[C@@H](NC(=O)[C@H](CCC(=O)O)NC(=O)[C@@H](Cc2ccc3ccccc3c2)NC(=O)[C@H]2NC(=O)[C@H](CC(C)C)NC(=O)[C@H]([C@@H](C)O)NC(=O)[C@H](CC(=O)O)NC(=O)[C@H](CO)NC(=O)[C@H](CCCNC(=N)N)N(C)C(=O)[C@@H](NC(C)=O)C(C)(C)SSC2(C)C)C(N)=O)C(N)=O)C(C)(C)SSC1(C)C` [compound 35] (I: Ac-[Pen][NMeR]SDTL[Pen][d2Nal]E[dK]-NH2 / II: Ac-[Pen][NMeR]SDTL[Pen][d2Nal]E[dK]-NH2; disulfide I:1-I:7, II:1-II:7; linker I:10-II:10 via Diglycolyl) fall in the same range of IC50: 100 to 500 nM for the first, 100 to 500 nM for the second.

`CC(=O)N[C@@H]1C(=O)N(C)[C@@H](CCCNC(=N)N)C(=O)N[C@@H](CO)C(=O)N[C@@H](CC(=O)O)C(=O)N[C@@H]([C@@H](C)O)C(=O)N[C@@H](CC(C)C)C(=O)N[C@H](C(=O)N[C@H](Cc2c[nH]c3ccccc23)C(=O)N[C@@H](CCC(=O)O)C(=O)N[C@H](CCCCNC(=O)COCC(=O)NCCCC[C@@H](NC(=O)[C@H](CCC(=O)O)NC(=O)[C@@H](Cc2c[nH]c3ccccc23)NC(=O)[C@H]2NC(=O)[C@H](CC(C)C)NC(=O)[C@H]([C@@H](C)O)NC(=O)[C@H](CC(=O)O)NC(=O)[C@H](CO)NC(=O)[C@H](CCCNC(=N)N)N(C)C(=O)[C@@H](NC(C)=O)C(C)(C)SSC2(C)C)C(N)=O)C(N)=O)C(C)(C)SSC1(C)C` [compound 28] (I: Ac-[Pen][NMeR]SDTL[Pen][dW]E[dK]-NH2 / II: Ac-[Pen][NMeR]SDTL[Pen][dW]E[dK]-NH2; disulfide I:1-I:7, II:1-II:7; linker I:10-II:10 via Diglycolyl) and `CC(=O)N[C@@H]1C(=O)N(C)[C@@H](CCCNC(=N)N)C(=O)N[C@@H](CO)C(=O)N[C@@H](CC(=O)O)C(=O)N[C@@H]([C@@H](C)O)C(=O)N[C@@H](CC(C)C)C(=O)N[C@H](C(=O)N[C@@H](Cc2c[nH]c3ccccc23)C(=O)N(C)[C@@H](CCC(=O)O)C(=O)N[C@H](CCCCNC(=O)COCC(=O)NCCCC[C@@H](NC(=O)[C@H](CCC(=O)O)N(C)C(=O)[C@H](Cc2c[nH]c3ccccc23)NC(=O)[C@H]2NC(=O)[C@H](CC(C)C)NC(=O)[C@H]([C@@H](C)O)NC(=O)[C@H](CC(=O)O)NC(=O)[C@H](CO)NC(=O)[C@H](CCCNC(=N)N)N(C)C(=O)[C@@H](NC(C)=O)C(C)(C)SSC2(C)C)C(N)=O)C(N)=O)C(C)(C)SSC1(C)C` [compound 31] (I: Ac-[Pen][NMeR]SDTL[Pen]W[NMeE][dK]-NH2 / II: Ac-[Pen][NMeR]SDTL[Pen]W[NMeE][dK]-NH2; disulfide I:1-I:7, II:1-II:7; linker I:10-II:10 via Diglycolyl) fall in the same range of IC50: 50 to 100 nM for the first, 50 to 100 nM for the second.

First: CC(=O)N[C@@H]1C(=O)N(C)[C@@H](CCCNC(=N)N)C(=O)N[C@@H](CO)C(=O)N[C@@H](CC(=O)O)C(=O)N[C@@H]([C@@H](C)O)C(=O)N[C@@H](CC(C)C)C(=O)N[C@H](C(=O)N[C@H](Cc2cccc3ccccc23)C(=O)N[C@@H](CCC(=O)O)C(=O)N[C@H](CCCCNC(=O)COCC(=O)NCCCC[C@@H](NC(=O)[C@H](CCC(=O)O)NC(=O)[C@@H](Cc2cccc3ccccc23)NC(=O)[C@H]2NC(=O)[C@H](CC(C)C)NC(=O)[C@H]([C@@H](C)O)NC(=O)[C@H](CC(=O)O)NC(=O)[C@H](CO)NC(=O)[C@H](CCCNC(=N)N)N(C)C(=O)[C@@H](NC(C)=O)C(C)(C)SSC2(C)C)C(N)=O)C(N)=O)C(C)(C)SSC1(C)C [compound 34] (I: Ac-[Pen][NMeR]SDTL[Pen][d1Nal]E[dK]-NH2 / II: Ac-[Pen][NMeR]SDTL[Pen][d1Nal]E[dK]-NH2; disulfide I:1-I:7, II:1-II:7; linker I:10-II:10 via Diglycolyl)
Second: CC(=O)N[C@H]1CSSC(C)(C)[C@@H](C(=O)N[C@@H](Cc2c[nH]c3ccccc23)C(=O)N[C@H](CCCCNC(=O)CCOCCOCCOCCOCCOCCOCCOCCOCCOCCOCCOCCOCCOCCOCCC(=O)NCCCC[C@@H](NC(=O)[C@H](Cc2c[nH]c3ccccc23)NC(=O)[C@H]2NC(=O)[C@H](CC(C)C)NC(=O)[C@H]([C@@H](C)O)NC(=O)[C@H](CC(=O)O)NC(=O)[C@H](CO)NC(=O)[C@H](CCCNC(=N)N)N(C)C(=O)[C@@H](NC(C)=O)CSSC2(C)C)C(N)=O)C(N)=O)NC(=O)[C@H](CC(C)C)NC(=O)[C@H]([C@@H](C)O)NC(=O)[C@H](CC(=O)O)NC(=O)[C@H](CO)NC(=O)[C@H](CCCNC(=N)N)N(C)C1=O [compound 36] (I: Ac-C[NMeR]SDTL[Pen]W[dK]-NH2 / II: Ac-C[NMeR]SDTL[Pen]W[dK]-NH2; disulfide I:1-I:7, II:1-II:7; linker I:9-II:9 via X4)
The IC50 of the first is lower: 25 to 50 nM for the first, 50 to 100 nM for the second.

`CC(=O)N[C@H]1CSSC(C)(C)[C@@H](C(=O)N[C@@H](Cc2c[nH]c3ccccc23)C(=O)N[C@H](CCCCNC(=O)CCOCCOCCOCCOCCOCCOCCOCCOCCOCCOCCOCCOCCOCCOCCOCCOCCOCCOCCOCCOCCOCCOCCOCCOCCOCCOCCC(=O)NCCCC[C@@H](NC(=O)[C@H](Cc2c[nH]c3ccccc23)NC(=O)[C@H]2NC(=O)[C@H](CC(C)C)NC(=O)[C@H]([C@@H](C)O)NC(=O)[C@H](CC(=O)O)NC(=O)[C@H](CO)NC(=O)[C@H](CCCNC(=N)N)N(C)C(=O)[C@@H](NC(C)=O)CSSC2(C)C)C(N)=O)C(N)=O)NC(=O)[C@H](CC(C)C)NC(=O)[C@H]([C@@H](C)O)NC(=O)[C@H](CC(=O)O)NC(=O)[C@H](CO)NC(=O)[C@H](CCCNC(=N)N)N(C)C1=O` [compound 37] (I: Ac-C[NMeR]SDTL[Pen]W[dK]-NH2 / II: Ac-C[NMeR]SDTL[Pen]W[dK]-NH2; disulfide I:1-I:7, II:1-II:7; linker I:9-II:9 via X1) gave an IC50 of 100 to 500 nM.
